Reference: US10189842B2 (Agency for Science, Technology and Research, priority 2013, dated 2019)

System: HEK293-STF3A cells
Experiment: STF3A assay (luciferase reporter)
Assay type: cell-based, Human
Conditions: 1 day of treatment
Method in brief: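 HEK293 cells carrying the STF reporter and expressing Wnt3A, seeded 2×10^4 per well overnight, then treated 1 day with compound at final 50 μM to 1.5 nM. Luciferase activity read by luminescence after Steady-Glo reagent, 10 min at room temperature.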

| Molecule | IC50 |
| --- | --- |
| 4-(2-methyl-6,7-dihydropyrazolo[1,5-a]pyrimidin-4(5H)-yl)-N-(4-(2-methylthiazol-4-yl)phenyl)-4-oxobutanamide [Compound 32] | < 100 nM |

Same assay, conditions: Homo sapiens, 24 h, 1 day of treatment

| Molecule | IC50 |
| --- | --- |
| Cc1cc2n(n1)CCCN2C(=O)CCC(=O)Nc1cc(-c2cccnc2)no1 [Compound 19, 4-(2-methyl-6,7-dihydropyrazolo[1,5-a]pyrimidin-4(5H)-yl)-4-oxo-N-(3-(pyridin-3-yl)isoxazol-5-yl)butanamide] | > 10000 nM |
| Cc1cc2n(n1)CCCN2C(=O)CCC(=O)Nc1ccc(-c2cccc(Cl)c2)nn1 [Compound 97, N-(6-(3-chlorophenyl)pyridazin-3-yl)-4-(2-methyl-6,7-dihydropyrazolo[1,5-a]pyrimidin-4(5H)-yl)-4-oxobutanamide] | < 100 nM |
| Cc1cc2n(n1)CCCN2C(=O)CCC(=O)Nc1ccc(-c2cncc(F)c2)nn1 [Compound 103, N-(6-(5-fluoropyridin-3-yl)pyridazin-3-yl)-4-(2-methyl-6,7-dihydropyrazolo[1,5-a]pyrimidin-4(5H)-yl)-4-oxobutanamide] | < 100 nM |
| Cc1cccc(-c2ccc(NC(=O)CCC(=O)N3CCCn4nc(C)cc43)cc2)c1 [Compound 59, 4-(2-methyl-6,7-dihydropyrazolo[1,5-a]pyrimidin-4(5H)-yl)-N-(3′-methyl-[1,1′-biphenyl]-4-yl)-4-oxobutanamide] | < 100 nM |
| Cc1cc2n(n1)CCCN2C(=O)CCC(=O)Nc1cnc(-c2cccnc2)cn1 [Compound 52, 4-(2-methyl-6,7-dihydropyrazolo[1,5-a]pyrimidin-4(5H)-yl)-4-oxo-N-(5-(pyridin-3-yl)pyrazin-2-yl)butanamide] | < 100 nM |
| O=C(CCC(=O)N1CCCn2nc(C(F)(F)F)cc21)Nc1cc(-c2cccc(Cl)c2)no1 [Compound 134, N-(3-(3-chlorophenyl)isoxazol-5-yl)-4-oxo-4-(2-(trifluoromethyl)-6,7-dihydropyrazolo[1,5-a]pyrimidin-4(5H)-yl)butanamide] | < 100 nM |
| Cc1cc2n(n1)CCCN2C(=O)CCC(=O)Nc1cnc(-c2cccnc2)c(F)c1 [Compound 111, N-(3-fluoro-2,3′-bipyridin-5-yl)-4-(2-methyl-6,7-dihydropyrazolo[1,5-a]pyrimidin-4(5H)-yl)-4-oxobutanamide] | < 100 nM |
| Cc1cc2n(n1)CCCN2C(=O)CCC(=O)Nc1ccc(-c2ccccn2)cn1 [Compound 41, N-([2,3′-bipyridin]-6′-yl)-4-(2-methyl-6,7-dihydropyrazolo[1,5-a]pyrimidin-4(5H)-yl)-4-oxobutanamide] | < 100 nM |
| Cc1cncc(-c2ccc(NC(=O)CCC(=O)N3CCCn4nc(C)cc43)nc2)n1 [Compound 128, 4-(2-methyl-6,7-dihydropyrazolo[1,5-a]pyrimidin-4(5H)-yl)-N-(5-(6-methylpyrazin-2-yl)pyridin-2-yl)-4-oxobutanamide] | < 100 nM |
| Cc1cc2n(n1)CC(C)CN2C(=O)CCC(=O)Nc1ccc(-c2ccccc2)nn1 (centres unmarked) [Compound 139, 4-(2,6-dimethyl-6,7-dihydropyrazolo[1,5-a]pyrimidin-4(5H)-yl)-4-oxo-N-(6-phenylpyridazin-3-yl)butanamide] | < 100 nM |
| Cc1cc2n(n1)CCCN2C(=O)CCC(=O)Nc1ccc(-c2ccc(F)cn2)cn1 [Compound 94, N-(5-fluoro-2,3′-bipyridin-6′-yl)-4-(2-methyl-6,7-dihydropyrazolo[1,5-a]pyrimidin-4(5H)-yl)-4-oxobutanamide] | < 100 nM |
| Cc1cc2n(n1)CCCN2C(=O)CCC(=O)N(C)c1cc(-c2cccc(Cl)c2)no1 [Compound 130, N-(3-(3-chlorophenyl)isoxazol-5-yl)-N-methyl-4-(2-methyl-6,7-dihydropyrazolo[1,5-a]pyrimidin-4(5H)-yl)-4-oxobutanamide] | > 10000 nM |
| Cc1cc2n(n1)CCCN2C(=O)CCC(=O)Nc1cnc(-c2cncc(F)c2)cn1 [Compound 122, N-(5-(5-fluoropyridin-3-yl)pyrazin-2-yl)-4-(2-methyl-6,7-dihydropyrazolo[1,5-a]pyrimidin-4(5H)-yl)-4-oxobutanamide] | < 100 nM |
| Cc1cc2n(n1)CCCN2C(=O)CCC(=O)Nc1ccc(-c2ccccc2)cc1 [Compound 33, N-([1,1′-biphenyl]-4-yl)-4-(2-methyl-6,7-dihydropyrazolo[1,5-a]pyrimidin-4(5H)-yl)-4-oxobutanamide] | < 100 nM |
| Cc1cc2n(n1)CCCN2C(=O)CCC(=O)Nc1cnc(-c2ccccc2)c(F)c1 [Compound 156, N-(5-fluoro-6-phenylpyridin-3-yl)-4-(2-methyl-6,7-dihydropyrazolo[1,5-a]pyrimidin-4(5H)-yl)-4-oxobutanamide] | < 100 nM |
| Cc1cncc(-c2ccc(NC(=O)C(C)CC(=O)N3CCCn4nc(C)cc43)nc2)n1 (centres unmarked) [Compound 151, 2-methyl-4-(2-methyl-6,7-dihydropyrazolo[1,5-a]pyrimidin-4(5H)-yl)-N-(5-(6-methylpyrazin-2-yl)pyridin-2-yl)-4-oxobutanamide] | < 100 nM |
| COC(=O)c1cc2n(n1)CCCN2C(=O)CCC(=O)Nc1cc(-c2cccc(Cl)c2)no1 [Compound 136, methyl 4-(4-(3-(3-chlorophenyl)isoxazol-5-ylamino)-4-oxobutanoyl)-4,5,6,7-tetrahydropyrazolo[1,5-a]pyrimidine-2-carboxylate] | > 10000 nM |

| Molecule | IC50 |
| --- | --- |
| Cc1cc2n(n1)CCCN2C(=O)CCC(=O)Nc1cnc(-c2cccnc2)c(C)n1 [Compound 125, N-(6-methyl-5-(pyridin-3-yl)pyrazin-2-yl)-4-(2-methyl-6,7-dihydropyrazolo[1,5-a]pyrimidin-4(5H)-yl)-4-oxobutanamide] | > 10000 nM |
| Cc1cc2n(n1)CCCN2C(=O)CCC(=O)Nc1ccc(-c2cc(F)ccn2)cn1 [Compound 95, N-(4-fluoro-2,3′-bipyridin-6′-yl)-4-(2-methyl-6,7-dihydropyrazolo[1,5-a]pyrimidin-4(5H)-yl)-4-oxobutanamide] | < 100 nM |
| Cc1cc2n(n1)CCCN2C(=O)CCC(=O)Nc1ccc(-c2cncc(N)c2)cn1 [Compound 117] | < 100 nM |
| Cc1cc2n(n1)CCCN2C(=O)CCC(=O)Nc1ccc(-c2ccccn2)cc1 [Compound 34, 4-(2-methyl-6,7-dihydropyrazolo[1,5-a]pyrimidin-4(5H)-yl)-4-oxo-N-(4-(pyridin-2-yl)phenyl)butanamide] | < 100 nM |
| Cc1cncc(-c2ccc(NC(=O)CCC(=O)N3CCCn4nc(C)cc43)nn2)c1 [Compound 104, 4-(2-methyl-6,7-dihydropyrazolo[1,5-a]pyrimidin-4(5H)-yl)-N-(6-(5-methylpyridin-3-yl)pyridazin-3-yl)-4-oxobutanamide] | < 100 nM |
| Cc1cc2n(n1)CCCN2C(=O)CCC(=O)Nc1ccc(-c2ccccc2)cc1C [Compound 53, 4-(2-methyl-6,7-dihydropyrazolo[1,5-a]pyrimidin-4(5H)-yl)-N-(3-methyl-[1,1′-biphenyl]-4-yl)-4-oxobutanamide] | > 10000 nM |
| Cc1cc2n(n1)CCCN2C(=O)CCC(=O)Nc1cc(-c2cccc(Br)c2)no1 [Compound 9, N-[3-(3-bromophenyl)-1,2-oxazol-5-yl]-4-{2-methyl-5H,6H,7H-pyrazolo[1,5-a]pyrimidin-4-yl}-4-oxobutanamide] | < 1000 nM |
| Cc1cc2n(n1)CCCN2C(=O)CCC(=O)Nc1cc(-c2ccc(Cl)cn2)no1 [Compound 17, N-(3-(5-chloropyridin-2-yl)isoxazol-5-yl)-4-(2-methyl-6,7-dihydropyrazolo[1,5-a]pyrimidin-4(5H)-yl)-4-oxobutanamide] | > 10000 nM |
| Cc1cc2n(n1)CCCN2C(=O)CCC(=O)Nc1ccc(-c2ccc(F)cc2)cc1 [Compound 66, N-(4′-fluorobiphenyl-4-yl)-4-(2-methyl-6,7-dihydropyrazolo[1,5-a]pyrimidin-4(5H)-yl)-4-oxobutanamide] | < 1000 nM |
| Cc1cc2n(n1)CCCN2C(=O)CCC(=O)Nc1ccc(C2CCCCC2)cc1 [Compound 75, N-(4-cyclohexylphenyl)-4-(2-methyl-6,7-dihydropyrazolo[1,5-a]pyrimidin-4(5H)-yl)-4-oxobutanamide] | > 10000 nM |
| COc1ccc(-c2ccc(NC(=O)CCC(=O)N3CCCn4nc(C)cc43)cc2)cc1 [Compound 63, N-(4′-methoxy-[1,1′-biphenyl]-4-yl)-4-(2-methyl-6,7-dihydropyrazolo[1,5-a]pyrimidin-4(5H)-yl)-4-oxobutanamide] | < 100 nM |
| Cc1ccnc(-c2ccc(NC(=O)CCC(=O)N3CCCn4nc(C)cc43)nc2)c1 [Compound 148, N-(4-methyl-2,3′-bipyridin-6′-yl)-4-(2-methyl-6,7-dihydropyrazolo[1,5-a]pyrimidin-4(5H)-yl)-4-oxobutanamide] | < 100 nM |
| Cc1cc2n(n1)CCCN2C(=O)CCC(=O)Nc1ccc(-c2cccnc2)cn1 [Compound 49, 4-{2-methyl-5H,6H,7H-pyrazolo[1,5-a]pyrimidin-4-yl}-4-oxo-N-[5-(pyridin-3-yl)pyridin-2-yl]butanamide] | < 100 nM |
| Cc1cc2n(n1)CCCN2C(=O)CCC(=O)Nc1ccc(-c2ccc(C(F)(F)F)cc2)cc1 [Compound 14, 4-(2-methyl-6,7-dihydropyrazolo[1,5-a]pyrimidin-4(5H)-yl)-4-oxo-N-(4′-(trifluoromethyl)-[1,1′-biphenyl]-4-yl)butanamide] | > 10000 nM |
| Cc1cc2n(n1)CCCN2C(=O)CCC(=O)Nc1cc(C)c(-c2cccnc2)cn1 [Compound 119, N-(4-methyl-3,3′-bipyridin-6-yl)-4-(2-methyl-6,7-dihydropyrazolo[1,5-a]pyrimidin-4(5H)-yl)-4-oxobutanamide] | < 5000 nM |
| Cc1cc2n(n1)CCCN2C(=O)CCC(=O)Nc1cnc(-c2ccccc2)c(C)c1 [Compound 86, 4-(2-methyl-6,7-dihydropyrazolo[1,5-a]pyrimidin-4(5H)-yl)-N-(5-methyl-6-phenylpyridin-3-yl)-4-oxobutanamide] | < 5000 nM |
| Cc1cc2n(n1)CCCN2C(=O)CCC(=O)Nc1ccc(-c2cncc(N)c2)nc1 [Compound 112, N-(5′-amino-2,3′-bipyridin-5-yl)-4-(2-methyl-6,7-dihydropyrazolo[1,5-a]pyrimidin-4(5H)-yl)-4-oxobutanamide] | < 1000 nM |
